Here are results for five molecules from patent US10961189B2, “Spiro-lactam NMDA receptor modulators and uses thereof” (Aptinyx Inc., priority 2016, dated 2021).

Structures are written as SMILES. Read-outs that look alike come from different tables or passages of the source. Bounds are passed on as bounds.

In series [1] the test system is Sprague Dawley rats. Put plainly: Porsolt forced swim test. The format is in vivo, rat. More on the design: key to Significance vs. vehicle: Yes: statistically significant (p<=0.05) from vehicle at dose level shown; No: not statistically significant from vehicle. Here is the method:
A non-clinical in vivo pharmacology study (Porsolt assay) was performed to measure antidepressant-like effects. A negative control (0.5% sodium carboxymethyl cellulose in 0.9% sterile saline vehicle) and a positive control (fluoxetine) are shown for comparison against test compound. The study allowed for the evaluation of the effects of each compound on the Porsolt forced swim test as assessed by the rats' response (reduced floating time) during a 5-minute swimming test.
Male 2-3 month old Sprague Dawley rats were used (Harlan, Indianapolis, Ind.). Rats were housed in Lucite cages with aspen wood chip bedding, maintained on a 12:12 light:dark cycle (lights on at 5 AM), and given ad libitum access to Purina lab chow (USA) and tap water throughout the study.
The Porsolt forced swim test adapted for use in rats was performed as described by Burgdorf et al., (The long-lasting antidepressant effects of rapastinel (GLYX-13) are associated with a metaplasticity process in the medial prefrontal cortex and hippocampus. Neuroscience 308:202-211, 2015). Animals were placed in a 46 cm tall×20 cm in diameter clear glass tube filled to 30 cm with tap water (23±1° C.) for 15 min on the first day (habituation) and 5 min on the subsequent test day. Positive control fluoxetine was dosed 3 times (24 h, 5 h and 1 h) prior to testing. Animals were tested 1 h or 24 h post-dosing with the test compounds or vehicle. Animals received a 15 min habituation session 1 day before the 5 min test. A subset of compounds tested at 1 h post-dosing were retested at 1 wk post-dosing in the same sets of animals. Water was changed after every other animal. Animals were videotaped, and floating time as defined as the minimal amount of effort required to keep the animals head above water was scored offline by a blinded experimenter with high inter-rater reliability (Pearson's r>0.9).
Each compound tested at dose level shown. Significance vs. vehicle group for each experiment is marked. […] A compound marked “No” was not statistically significant from vehicle. Data was averaged for test compound and vehicle groups (N approximately 8 per group) and the percent reduction in floating for group treated with test compound relative to group treated with vehicle is shown.

The next series addresses T1, NMDAR2B (Homo sapiens, UniProt Q13224).
T1 construct: expressed in transfected cells; host or cells: HEK cells (membrane extract)
Put plainly: [3H]MK-801 binding in NMDAR expressing HEK cell membranes (facilitation of NMDAR activation). The class given is biochemical. As to conditions: 50 μM glutamate; for EC50: read-out: B: log EC50 (converted); for Emax: 0.25 h, read-out: A: % maximal [3H]MK-801 binding relative to 1 mM glycine. How it is done:
(§1) Assays were conducted as described by Moskal et al., “GLYX-13: a monoclonal antibody-derived peptide that acts as an N-methyl-D-aspartate receptor modulator,” Neuropharmacology, 49, 1077-87, 2005. These studies were designed to determine if the test compounds act to facilitate NMDAR activation in NMDAR2A, NMDAR2B, NMDAR2C or NMDAR2D expressing HEK cell membranes as measured by increases in [^3H]MK-801 binding.
(§2) In the assay, 300 μg of NMDAR expressing HEK cell membrane extract protein was preincubated for 15 minutes at 25° C. in the presence of saturating concentrations of glutamate (50 μM) and varying concentrations of test compound (1×10^15M−1×10^−7M), or 1 mM glycine. Following the addition of 0.3 μCi of [^3H]MK-801 (22.5 Ci/mmol), reactions were again incubated for 15 minutes at 25° C. (nonequilibrium conditions). Bound and free [^3H]MK-801 were separated via rapid filtration using a Brandel apparatus.
(§3) In analyzing the data, the DPM (disintegrations per minute) of [^3H]MK-801 remaining on the filter were measured for each concentration of test compound or for 1 mM glycine. The DPM values for each concentration of a ligand (N=2) were averaged. The baseline value was determined from the best fit curve of the DPM values modeled using the GraphPad program and the log(agonist) vs. response (three parameters) algorithm was then subtracted from all points in the dataset. The % maximal [^3H]MK-801 binding was then calculated relative to that of 1 mM glycine: all baseline subtracted DPM values were divided by the average value for 1 mM glycine. The EC50 and % maximal activity were then obtained from the best fit curve of the % maximal [^3H]MK-801 binding data modelled using the GraphPad program and the log(agonist) vs. response (three parameters) algorithm.
(§4) The tables below summarize the results for the wild type NMDAR agonists NMDAR2A, NMDAR2B, NMDAR2C, and NMDAR2D, and whether the compound is not an agonist (−), is an agonist (+), or is a strong agonist (++), where column A is based on the % maximal [^3H]MK-801 binding relative to 1 mM glycine (−=0; <100%=+; and >100%=++); and column B is based on log EC50 values (0=−; ≥1×10^−9 M (e.g., −8)=+; and <1×10^−9 M (e.g., −10)=++).

In the next series the target is T2, NMDAR2A (Homo sapiens, UniProt Q12879).
T2 construct: expressed in transfected cells; host or cells: HEK cells (membrane extract)
The description is as above. The class given is biochemical. The settings on record: 50 μM glutamate; for EC50: read-out: B: log EC50 (converted); for Emax: 0.25 h, read-out: A: % maximal [3H]MK-801 binding relative to 1 mM glycine. How it is done:
as §1, §2, §3, §4

The nature of series [2]: oral pharmacokinetics (plasma, brain, CSF). The class given is in vivo, Sprague Dawley rats. As to conditions: rat, per os 10 mg/kg; for bioavailability / Tmax / AUC(0-t) / Cmax: Sprague-Dawley, plasma, po; for Tmax: normal saline (* in 5% NMP, 5% Solutol HS, 90% normal saline), read-out: Tmax; for Cmax: read-out: Cmax.
Procedure: In another experiment, Sprague Dawley rats were dosed per os using a normal saline formulation containing 10 mg/kg of the compounds identified in the table below (except for the compounds marked with an asterisk (“*”) that were delivered in 5% NMP, 5% Solutol® HS and 90% normal saline formulation). Plasma, brain, and CSF samples were analyzed at various time points over a 24 hour period.
The next series is described as follows: IV pharmacokinetics. The class given is in vivo, Sprague Dawley rats. The settings on record: rat, normal saline (* in 5% NMP, 5% Solutol HS, 90% normal saline); for AUC(0-t) / half-life / C0 / Vd: Sprague-Dawley, in vivo; for C0: read-out: C0; for Vd: read-out: Vss. The source says: The table below summarizes the results of the IV pharmacokinetics.
Series [3] concerns Sprague Dawley rats. In words: Bennett model of mechanical analgesia (sciatic nerve chronic constriction, paw withdrawal threshold).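 Note: log paw withdrawal threshold scaled from vehicle group mean (0%) to naive 15 g value (100%).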 The class given is in vivo, rat. As to conditions: 150 mg/kg PO, example gabapentin control value. Here is the method:
The Bennett model of mechanical analgesia is used to assess the analgesic effects of compounds as measured by paw withdrawal threshold. Bennett GJ, Xie YK, “A peripheral mononeuropathy in rat that produces disorders of pain sensation like those seen in man,” Pain 33:87-107, 1988. […] Vehicle animals receive the surgery and then receive vehicle rather than test compound. Animals were tested 1 hr, 24 h and 1 wk post-test compound or vehicle administration.
Male 2-3 month old Sprague Dawley rats were used. Harlan was the supplier for all studies. Rats were housed in Lucite cages with aspen wood chip bedding, maintained on a 12:12 light:dark cycle (lights on at 5 AM), and given ad libitum access to Purina lab chow (USA) and tap water throughout the study.
Rats were anesthetized using inhaled isoflurane (2.5%). Sciatic nerve chronic constriction nerve injury surgery was performed as previously described (Bennett and Xie, 1988). An incision (˜1.5 cm in length) was made with a scalpel blade dorsally through skin on the right hind limb, parallel and posterior to femur. Using a small pointed hemostat, the biceps femoris and gluteus superficialis muscles were separated. Using curved blunt forceps, the common sciatic nerve was isolated and exposed. For the mechanical analgesia studies, the whole sciatic nerve was ligated. Using hemostats/forceps and chromic gut (5-0), the nerve was loosely ligated with a square knot; 3 ligatures, 1 mm apart were placed on the nerve. […] Testing occurred approximately 2 weeks post-surgery.
During testing, rats were acclimated to the surface of a suspended wire mesh grid (1 cm×1 cm, with the wire being 0.3 cm in diameter) for 15-20 min. Starting from the smallest, each Von Frey filament was pressed perpendicularly to the plantar surface of the affected (ipsilateral) hind paw until slightly bent and then held for 6 second. If an obvious hind paw withdrawal or a flinching behavior immediately after the withdrawal of the filament was not observed, the next larger filament was used in the same manner. In case of a response, a lower filament was used. This was repeated until six responses were collected.
For all studies, animals were baselined prior to study start to test for allodynia (defined as a paw withdrawal threshold under 5). A subset of animals was tested with gabapentin (150 mg/kg, PO) to ensure at least 50% analgesia. Once it was confirmed animals were ready for study initiation, animals were balanced across groups. All study investigators were blind to treatment conditions. Animals were dosed with 0.1, 1 or 10 mg/kg of test compound via oral gavage (PO), control sets of animals were dosed with gabapentin (150 mg/kg, PO) or vehicle (0.5% Na-CMC in 0.9% sterile saline, PO). Testing occurred 1 h post-dosing with animals retested 24 hrs and 1 week post-dosing. The percent analgesia calculations for each animal were made using the following equation: % analgesia=[(log(x)−y)/((log (z)−y)]*100, where x=the paw withdrawal threshold for the drug-treated animal in grams, y=the average of the log(x) values for the vehicle treated group, and z=the paw withdrawal threshold for naïve animals in grams (historical value of 15 used).
The results are shown in the table below where the percentage of analgesia is measured at 1 hour, 24 hours, and 1 week after compound administration. Since each study had its own gabapentin control group, an example gabapentin control value is shown.

Where [4] appears, read: 20 mg/kg, dosed 3 times (24 h, 5 h and 1 h) prior to testing, 1 h post-dose.

T1 sequence (Q13224 27-1484, species assumed, other chains not shown): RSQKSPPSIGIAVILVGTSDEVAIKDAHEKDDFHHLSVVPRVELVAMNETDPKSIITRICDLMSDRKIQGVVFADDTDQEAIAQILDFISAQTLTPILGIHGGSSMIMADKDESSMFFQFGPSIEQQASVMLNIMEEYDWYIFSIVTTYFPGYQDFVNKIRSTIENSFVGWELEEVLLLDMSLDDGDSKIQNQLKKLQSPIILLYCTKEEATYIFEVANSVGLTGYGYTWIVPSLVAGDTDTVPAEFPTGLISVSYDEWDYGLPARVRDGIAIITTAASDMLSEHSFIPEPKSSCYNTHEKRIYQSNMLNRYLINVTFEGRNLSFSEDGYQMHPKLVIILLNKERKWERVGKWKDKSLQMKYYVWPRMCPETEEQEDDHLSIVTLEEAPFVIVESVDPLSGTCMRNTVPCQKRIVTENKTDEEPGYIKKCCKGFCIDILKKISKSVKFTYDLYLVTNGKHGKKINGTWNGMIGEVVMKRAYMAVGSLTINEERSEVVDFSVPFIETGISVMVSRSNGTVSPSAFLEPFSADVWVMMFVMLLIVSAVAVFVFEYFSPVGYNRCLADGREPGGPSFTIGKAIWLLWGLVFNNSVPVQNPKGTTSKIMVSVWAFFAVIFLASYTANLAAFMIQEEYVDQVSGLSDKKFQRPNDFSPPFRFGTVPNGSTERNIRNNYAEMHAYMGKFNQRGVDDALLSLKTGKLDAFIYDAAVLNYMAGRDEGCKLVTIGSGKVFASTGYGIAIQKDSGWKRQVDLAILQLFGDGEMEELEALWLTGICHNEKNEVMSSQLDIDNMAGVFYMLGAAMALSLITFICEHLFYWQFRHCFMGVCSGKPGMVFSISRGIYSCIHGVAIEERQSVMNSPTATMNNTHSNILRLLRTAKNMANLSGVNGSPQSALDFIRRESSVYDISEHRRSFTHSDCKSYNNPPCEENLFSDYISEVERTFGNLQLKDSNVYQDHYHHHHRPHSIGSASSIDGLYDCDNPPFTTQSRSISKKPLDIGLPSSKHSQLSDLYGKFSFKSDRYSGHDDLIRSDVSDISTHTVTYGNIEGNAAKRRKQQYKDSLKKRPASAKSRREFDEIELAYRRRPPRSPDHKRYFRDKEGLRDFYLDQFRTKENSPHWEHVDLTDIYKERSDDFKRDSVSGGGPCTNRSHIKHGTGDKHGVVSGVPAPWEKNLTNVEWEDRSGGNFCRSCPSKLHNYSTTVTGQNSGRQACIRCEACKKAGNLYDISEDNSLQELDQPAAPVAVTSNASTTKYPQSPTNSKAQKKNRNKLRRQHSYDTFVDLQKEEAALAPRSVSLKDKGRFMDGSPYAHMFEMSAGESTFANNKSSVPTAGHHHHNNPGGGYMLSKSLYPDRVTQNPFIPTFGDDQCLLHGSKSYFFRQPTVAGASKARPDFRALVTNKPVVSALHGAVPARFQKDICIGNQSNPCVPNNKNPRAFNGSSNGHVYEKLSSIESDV
T2 sequence (Q12879 23-1464, species assumed, other chains not shown): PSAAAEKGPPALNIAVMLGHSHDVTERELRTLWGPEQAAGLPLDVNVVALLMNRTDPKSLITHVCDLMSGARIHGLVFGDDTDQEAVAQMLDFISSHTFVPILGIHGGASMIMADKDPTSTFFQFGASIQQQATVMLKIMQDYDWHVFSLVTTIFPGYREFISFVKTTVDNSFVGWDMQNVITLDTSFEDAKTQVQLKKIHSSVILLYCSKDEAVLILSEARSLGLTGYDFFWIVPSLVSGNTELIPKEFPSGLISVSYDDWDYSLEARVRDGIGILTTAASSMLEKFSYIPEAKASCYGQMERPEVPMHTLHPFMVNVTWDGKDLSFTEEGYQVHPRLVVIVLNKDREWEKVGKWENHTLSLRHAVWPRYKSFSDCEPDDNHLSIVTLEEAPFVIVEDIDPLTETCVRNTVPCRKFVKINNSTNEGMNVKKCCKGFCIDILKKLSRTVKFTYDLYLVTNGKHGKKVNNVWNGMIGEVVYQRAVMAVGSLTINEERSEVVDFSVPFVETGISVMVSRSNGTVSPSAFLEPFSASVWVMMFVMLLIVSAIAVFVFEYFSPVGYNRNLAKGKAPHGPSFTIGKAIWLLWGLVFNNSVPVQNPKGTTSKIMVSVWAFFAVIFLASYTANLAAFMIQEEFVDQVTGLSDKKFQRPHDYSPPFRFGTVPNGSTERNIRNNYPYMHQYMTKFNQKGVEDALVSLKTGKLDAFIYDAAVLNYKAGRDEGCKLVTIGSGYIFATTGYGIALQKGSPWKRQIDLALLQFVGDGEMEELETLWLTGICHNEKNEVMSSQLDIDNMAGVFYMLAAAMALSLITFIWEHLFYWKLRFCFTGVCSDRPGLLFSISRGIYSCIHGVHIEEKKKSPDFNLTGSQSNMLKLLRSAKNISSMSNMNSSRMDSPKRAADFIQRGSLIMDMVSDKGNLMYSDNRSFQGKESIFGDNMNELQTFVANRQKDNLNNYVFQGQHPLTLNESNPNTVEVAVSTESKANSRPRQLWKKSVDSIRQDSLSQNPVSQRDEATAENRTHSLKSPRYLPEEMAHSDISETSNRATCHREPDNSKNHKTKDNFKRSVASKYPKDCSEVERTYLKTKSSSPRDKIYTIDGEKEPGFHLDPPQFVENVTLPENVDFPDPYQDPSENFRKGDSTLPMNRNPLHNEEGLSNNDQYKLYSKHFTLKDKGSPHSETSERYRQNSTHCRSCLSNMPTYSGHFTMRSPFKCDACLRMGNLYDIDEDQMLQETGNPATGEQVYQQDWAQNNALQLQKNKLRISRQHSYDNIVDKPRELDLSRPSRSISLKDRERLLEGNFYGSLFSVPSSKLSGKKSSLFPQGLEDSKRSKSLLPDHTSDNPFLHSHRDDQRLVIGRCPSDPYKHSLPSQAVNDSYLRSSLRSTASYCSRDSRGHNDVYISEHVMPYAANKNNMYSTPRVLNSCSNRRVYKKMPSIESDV

Take `CNCCC(Oc1ccc(C(F)(F)F)cc1)c1ccccc1` (stereo not drawn) [Fluoxetine, reference compound]: in the series with Sprague Dawley rats [1] (setting [4]), the “% reduction in float time” value turned out to be 54% and the Significance vs. vehicle entry is listed as “Yes (statistically significant (p<=0.05) from vehicle at dose level shown)”.
For `NC(=O)C(CO)N1CC2(CCCCC2)C1=O` (single isomer, unassigned) [AS, 3-hydroxy-2-(l-oxo-2-azaspiro[3.5]nonan-2-yl)propanamide], in the series with Sprague Dawley rats [1] (0.1 mg/kg, 1 wk post-dose), the “% reduction in float time” value is listed as 32.0% and the Significance vs. vehicle entry is listed as “No”. In the series with Sprague Dawley rats [1] (0.1 mg/kg, 1 h post-dose), the “% reduction in float time” value was 82.3% and the Significance vs. vehicle entry was “Yes (statistically significant (p<=0.05) from vehicle at dose level shown)”. On NMDAR2B, the EC50 – broadly, the midpoint of the concentration-response curve – is under 1 nM and the Emax was under 100%. Also, at NMDAR2A, the EC50 was under 1 nM and the Emax was under 100%.
Regarding `O=C1NCC12CCC(NCc1ccccc1)CC2` (stereo not drawn) [EX], in series [2], the bioavailability (usually dose-corrected exposure relative to a reference, in per cent) turned out to be 100%; the Tmax (commonly the time at which the peak concentration occurs) amounted to 120 min; the AUC(0-t) (usually the area under the concentration-time curve up to a stated or last time point) worked out at 7380 ng·h/mL; the Cmax (in general, the maximum level reached in the sampled fluid or tissue) is 3190 ng/mL. Further, in series [2], the “CSF Cmax” value stood at 459.46 ng/mL and the “Brain Cmax” value came to 2799.98 ng/mL. At NMDAR2B, the EC50 is under 1 nM and the Emax was over 100%. Moreover, on NMDAR2A, the EC50 was under 1 nM and the Emax was under 100%. Further, in the series “IV pharmacokinetics” (intravenous 2 mg/kg), the AUC(0-t) was determined as 659 ng·h/mL, the half-life (usually how long it takes for the measured level to halve) is 70.8 min, the C0 was 1340 ng/mL and the Vd was 2.71 L/kg. Further, the CI in “IV pharmacokinetics” (intravenous 2 mg/kg) was determined as 50.52 mL/min/kg.
For the molecule `CC1CCC2(CC1)CN(CC(N)=O)C2=O` (stereo not drawn) [Compound BC, 2-(7-methyl-1-oxo-2-azaspiro[3.5]nonan-2-yl)acetamide], in series [2] (10 mg/kg), the AUC(0-t) amounted to 612 ng·h/mL, the bioavailability was 52%, the Tmax was 15 min and the Cmax was 869 ng/mL. Also, in series [2], the “CSF Cmax” value worked out at 1362 ng/mL and the “Brain Cmax” value came to 2321 ng/mL. Besides, the Emax at NMDAR2B was determined as 0%. At NMDAR2A, the EC50 is under 1 nM and the Emax was under 100%. Further, in “IV pharmacokinetics” (iv, 2 mg/kg), the AUC(0-t) was found to be 233 ng·h/mL, the half-life is 13.2 min, the C0 was 658 ng/mL and the Vd is 2.67 L/kg. This molecule also had a CI in “IV pharmacokinetics” (intravenous 2 mg/kg) of 145.13 mL/min/kg.
`NCC1(CC(=O)O)CCCCC1` [Gabapentin, reference compound]: the “% analgesia” value was 0% in the series with Sprague Dawley rats [3] (1 wk post-dosing); 72% with Sprague Dawley rats [3] (1 h post-dosing); “at least 50%” in the series with Sprague Dawley rats [3] (1 h post-dosing, listed as gabapentin).
